Reference: patent publication US20120289517A1, “SOLID PHARMACEUTICAL COMPOSITION FOR ORAL ADMINISTRATION” (Kowa Co., Ltd., priority 2009, published 2012)

Key:
[1] = Dissolution test (paddle method, Japanese Pharmacopoeia); format: physicochemical; conditions: summary of Test Example 1
Description: Thus, the concentrations of the compound a after 5, 10, 15, 30, 45 and 60 minutes were measured. The sample solution collected at each time point was filtered through a membrane filter made of PTFE (DISMIC-25HP manufactured by Toyo Roshi Kaisha, Ltd.) having a pore size of 0.45 μm, and was analyzed by a high performance liquid chromatographic method using a reversed phase column (manufactured by Nomura Chemical Co., Ltd.; Develosil ODS-HG-5). Thus, the dissolution rates were calculated.

Solubility in water = format: physicochemical

With CSc1cc(C)nc(SC)c1NC(=O)CN1CCN(CCSc2nc3ccccc3[nH]2)CC1 [compound a, 2-[4-[2-(Benzimidazol-2-ylthio)ethyl]piperazin-1-yl]-N-[2,4-bis(methylthio)-6-methyl-3-pyridyl]acetamide] the “dissolubility, result in words” value [1] was “hardly dissolved” and the solubility in water (Solubility in water) was 0.05 % (W/V).
